In US10076519B2 (CYTOKINETICS, INC., priority 2010, dated 2018):

system: rabbit skeletal myofibrils (fast skeletal myofibrils); experiment: Activation of fast skeletal myofibrils (PUMA assay, PK/LDH-coupled ATPase at pCa25); format: biochemical; details: AC1.4 determined according to the procedure of Example 39; reported as class symbols
Procedure: Preparation of Fast Skeletal Myofibrils.
Rabbit skeletal myofibrils were prepared based upon the method of Herrmann et al. (Biochem. 32(28):7255-7263(1993). Myofibrils were prepared from rabbit psoas muscle purchased from Pel-Freez Biologicals (Arkansas) within 2 days of ordering, stored on ice. Minced muscle was homogenized in 10 volumes of ice-cold “standard” buffer (50 mM Tris, pH 7.4, 0.1M potassium acetate, 5 mM KCl, 2 mM DTT, 0.2 mM PMSF, 10 μM leupeptin, 5 μM pepstatin, and 0.5 mM sodium azide) containing 5 mM EDTA and 0.5% Triton X-100 using an Omni-Macro homogenizer. Myofibrils were recovered by low speed centrifugation (3000 rpm for 10 minutes) and washed 2 times in the Triton X-100 containing buffer to ensure removal of cellular membrane. Following the Triton washes, myofibrils were washed 3 times in “standard” buffer containing 2 mM magnesium acetate. A final wash in assay buffer (12 mM PIPES, pH 6.8, 60 mM KCl, 1 mM DTT) was performed and brought to 10% sucrose for flash freezing in liquid nitrogen and storage at −80° C.
Activation of Fast Skeletal Myofibrils.
Fast fiber activators were identified by measuring the enzymatic activity of muscle myofibril preparations using the proprietary PUMA™ (see, e.g., U.S. Pat. Nos. 6,410,254, 6,743,599, 7,202,051, and 7,378,254) assay system. Myofibril preparations consisted of rabbit skeletal muscle (approximately 90% fast fibers) that had been mechanically homogenized and washed with a detergent (triton X-100) to remove cellular membranes. This preparation retained all of the sarcomeric components in a native conformation and the enzymatic activity was still regulated by calcium. Compounds were tested using a myofibril suspension and a level of calcium sufficient to increase enzymatic activity of the myofibrils to 25% of their maximal rate (termed pCa25). Enzymatic activity was tracked via a pyruvate kinase and lactate dehydrogenase-coupled enzyme system. This assay regenerates myosin-produced ADP into ATP by oxidizing NADH, producing an absorbance change at 340 nm. The buffering system was 12 mM Pipes, 2 mM MgCl2, 1 mM DTT at pH 6.8 (PM12 buffer).
Using procedures similar to those described herein, utilizing reagents and intermediates commercially available (e.g., Sigma-Aldrich, St. Louis, Mo.) or readily synthesized by one of skill in the art, the compounds in Table 2 were synthesized, characterized and tested. AC1.4 values were determined according to the procedure described in Example 39, and the reported median AC1.4 values are as follows: A=<1 uM; B=1-10 uM; C=10-20 uM; D=>20 uM.

Row | Compound | Mean AC1.4
1 | N#Cc1ccnc(C2(CNc3ccc(-c4ccc5[nH]ncc5c4)nn3)CCC2)c1 | A (A=<1 uM)
2 | NC(=O)c1ccnc(C2(CNc3ccc(-c4ccc5[nH]ncc5c4)nn3)CCC2)c1 | C (C=10-20 uM)
3 | NC(=O)c1ccnc(C2(CNc3ccc(-c4cc(C(N)=O)ccc4F)nn3)CCC2)c1 | D (D=>20 uM)
4 | NC(=O)c1cccc(-c2ccc(NCC3(c4cc(C(N)=O)ccn4)CCC3)nn2)c1 | D (D=>20 uM)
5 | NCC(=O)Nc1n[nH]c2ccc(-c3ccc(NCC4(c5ncccc5F)CCC4)nn3)cc12 | B (B=1-10 uM)
6 | O=C(O)c1cc(-c2ccc(NCC3(c4ncccc4F)CCC3)nn2)ccc1F | B (B=1-10 uM)
7 | CC(C)(CNc1ccc(-c2cccc(C#N)c2)nn1)OCc1ccccc1 | D (D=>20 uM)
8 | CC(C)(CNc1ccc(-c2cccc(C(N)=O)c2)nn1)OCc1ccccc1 | D (D=>20 uM)
9 | NC(=O)c1cccc(-c2ccc(NCC3(c4ccccn4)CCC3)nn2)c1 | A (A=<1 uM)
10 | CC(Nc1ccc(-c2cccc(C(N)=O)c2)nn1)c1ccc(F)cc1 (stereo not shown) | C (C=10-20 uM)
11 | N=C(N)c1cccc(-c2ccc(NCC3(c4ncccc4F)CCC3)nn2)c1 | D (D=>20 uM)
12 | Cc1ccc(C(N)=O)cc1-c1ccc(NCC2(c3ncccc3F)CCC2)nn1 | B (B=1-10 uM)
13 | N#Cc1ccnc(C2(CNc3ccc(-c4cccc(C(N)=O)c4)nn3)CCC2)c1 | B (B=1-10 uM)
14 | N#Cc1ccnc(C2(CNc3ccc(-c4cc(C(N)=O)ccc4F)nn3)CCC2)c1 | B (B=1-10 uM)
15 | NC(=O)c1cccc(-c2ccc(NCC3(c4ccc(F)cc4)CCC3)nn2)c1 | A (A=<1 uM)
16 | N#Cc1cccc(C2(CNc3ccc(-c4cccc(C(N)=O)c4)nn3)CCC2)n1 | B (B=1-10 uM)
17 | NC(=O)c1cccc(-c2ccc(NCC3(c4cnccn4)CCC3)nn2)c1 | D (D=>20 uM)
18 | CC(Nc1ccc(-c2cccc(C(N)=O)c2)nn1)c1ccccc1 (stereo not shown) | D (D=>20 uM)
19 | NC(=O)n1nc(N)c2cc(-c3ccc(NCC4(c5ncccc5F)CCC4)nn3)ccc21 | B (B=1-10 uM)
20 | O=C1Cc2c(cccc2-c2ccc(NCC3(c4ncccc4F)CCC3)nn2)N1 | B (B=1-10 uM)
21 | COc1ccc(C2(CNc3ccc(-c4cc(C(N)=O)ccc4F)nn3)CCC2)nc1 | D (D=>20 uM)
22 | CC(C)(CNc1ccc(-c2ccc(=O)[nH]c2)nn1)c1ccc(F)cc1 | B (B=1-10 uM)

Row | Compound | Mean AC1.4
23 | CC(C)(CNc1ccc(-c2cnc(=O)[nH]c2)nn1)c1ccc(F)cc1 | D (D=>20 uM)
24 | CC(C)(CNc1ccc(-c2ccc3[nH]c(=O)[nH]c3c2)nn1)c1ccc(F)cc1 | A (A=<1 uM)
25 | NC(=O)c1cc(C(N)=O)cc(-c2ccc(NCC3(c4ncccc4F)CCC3)nn2)c1 | B (B=1-10 uM)
26 | O=C(O)c1cc(C(=O)O)cc(-c2ccc(NCC3(c4ncccc4F)CCC3)nn2)c1 | D (D=>20 uM)
27 | CC1(C)C(=O)Nc2cc(-c3ccc(NCC4(c5ncccc5F)CCC4)nn3)ccc21 | D (D=>20 uM)
28 | N#Cc1ccc(C2(CNc3ccc(-c4ccc5[nH]ncc5c4)nn3)CCC2)nc1 | B (B=1-10 uM)
29 | NC(=O)c1cccc(C2(CNc3ccc(-c4ccc5[nH]ncc5c4)nn3)CCC2)n1 | B (B=1-10 uM)
30 | N#Cc1cccc(C2(CNc3ccc(-c4ccc5[nH]ncc5c4)nn3)CCC2)n1 | B (B=1-10 uM)
31 | NC(=O)c1cccc(-c2ccc(NCC3(c4cccc(C(N)=O)n4)CCC3)nn2)c1 | D (D=>20 uM)
32 | CC(=O)Nc1cccc(-c2ccc(NCC3(c4ncccc4F)CCC3)nn2)c1 | B (B=1-10 uM)
33 | CC(=O)Nc1nc(-c2ccc(NCC3(c4ncccc4F)CCC3)nn2)c[nH]1 | D (D=>20 uM)
34 | CC(=O)Nc1n[nH]c2ccc(-c3ccc(NCC4(c5ncccc5F)CCC4)nn3)cc12 | B (B=1-10 uM)
35 | COC(=O)NCc1ccc(-c2ccc(NCC(C)(C)c3ccc(F)cc3)nn2)cn1 | C (C=10-20 uM)
36 | OCc1ccccc1-c1ccc(NCC2(c3ncccc3F)CCC2)nn1 | B (B=1-10 uM)
37 | CNC(=O)c1cc(-c2ccc(NCC3(c4ncccc4F)CCC3)nn2)ccc1F | B (B=1-10 uM)
38 | CS(=O)(=O)Nc1n[nH]c2ccc(-c3ccc(NCC4(c5ncccc5F)CCC4)nn3)cc12 | A (A=<1 uM)
39 | Fc1cccnc1C1(CNc2ccc(-c3ccccc3OC(F)(F)F)nn2)CCC1 | A (A=<1 uM)
40 | NC(=O)Nc1cccc(-c2ccc(NCC3(c4ncccc4F)CCC3)nn2)c1 | A (A=<1 uM)
41 | N=C(N)Nc1cccc(-c2ccc(NCC3(c4ncccc4F)CCC3)nn2)c1 | B (B=1-10 uM)
42 | N=C(N)Nc1ccc(-c2ccc(NCC3(c4ncccc4F)CCC3)nn2)cc1 | B (B=1-10 uM)
43 | N=C(N)Nc1n[nH]c2ccc(-c3ccc(NCC4(c5ncccc5F)CCC4)nn3)cc12 | B (B=1-10 uM)

same assay, conditions: median AC1.4 class, procedure of Example 39

Row | Compound | Mean AC1.4
44 | NC(=O)c1cccc(-c2ccc(NC3(c4ncccc4OC(F)F)CCC3)nn2)c1 | D (D=>20 uM)
45 | NC(=O)c1ccc(F)c(-c2ccc(NC3(c4ncccc4OC(F)F)CCC3)nn2)c1 | C (C=10-20 uM)
46 | NC(=O)c1ccc(F)c(-c2ccc(NC3(c4ncccc4Br)CCC3)nn2)c1 | A (A=<1 uM)
47 | NC(=O)c1ccc(C2(Nc3ccc(-c4cccc(C(N)=O)c4)nn3)CCC2)cc1 | D (D=>20 uM)
48 | N#Cc1ccnc(C2(Nc3ccc(-c4cc(C(N)=O)ccc4F)nn3)CCC2)c1 | D (D=>20 uM)
49 | NC(=O)c1ccc(F)c(-c2ccc(NC3(c4ccc(OC(F)F)cn4)CCC3)nn2)c1 | D (D=>20 uM)
50 | N#Cc1ccc(C2(Nc3ccc(-c4cc(C(N)=O)ccc4F)nn3)CCC2)nc1 | D (D=>20 uM)
51 | NC(=O)c1cccc(-c2ccc(NC3(c4cccc(OC(F)F)n4)CCC3)nn2)c1 | A (A=<1 uM)
52 | NC(=O)c1ccc(F)c(-c2ccc(NC3(c4cccc(OC(F)F)n4)CCC3)nn2)c1 | A (A=<1 uM)
53 | N#Cc1cccc(C2(Nc3ccc(-c4cc(C(N)=O)ccc4F)nn3)CCC2)n1 | B (B=1-10 uM)
54 | COc1cccc(C2(Nc3ccc(-c4cccc(C(N)=O)c4)nn3)CCC2)n1 | B (B=1-10 uM)
55 | NC(=O)c1ccc(Cl)c(-c2ccc(NC3(c4ncccc4F)CCC3)nn2)c1 | B (B=1-10 uM)
56 | CC(C)(Nc1ccc(-c2cc(C(N)=O)ccc2F)nn1)c1cccc(=O)[nH]1 | D (D=>20 uM)
57 | N#Cc1ccc(F)c(-c2ccc(NC3(c4ncccc4F)CCC3)nn2)c1 | B (B=1-10 uM)
58 | NC(=O)c1ccc(F)c(-c2ccc(NC3(c4ncccc4O)CCC3)nn2)c1 | D (D=>20 uM)
59 | COc1cccnc1C1(Nc2ccc(-c3cc(C(N)=O)ccc3F)nn2)CCC1 | C (C=10-20 uM)
60 | O=C(O)c1ccc(F)c(-c2ccc(NC3(c4ccc(F)cc4)CCC3)nn2)c1 | B (B=1-10 uM)

Row | Compound | Mean AC1.4
61 | NC(=O)c1ccc(F)c(-c2ccc(NC3(c4ccc(O)cn4)CCC3)nn2)c1 | D (D=>20 uM)
62 | COc1ccc(C2(Nc3ccc(-c4cc(C(N)=O)ccc4F)nn3)CCC2)nc1 | D (D=>20 uM)
63 | COc1cccc(C2(Nc3ccc(-c4cc(C(N)=O)ccc4F)nn3)CCC2)n1 | A (A=<1 uM)
64 | CC1(Nc2ccc(-c3cc(C(N)=O)ccc3F)nn2)CCC1 | D (D=>20 uM)
65 | CS(=O)(=O)Nc1cccc(-c2ccc(NC3(c4ncccc4OC(F)F)CCC3)nn2)c1 | C (C=10-20 uM)
66 | CS(=O)(=O)Nc1cccc(-c2ccc(NC3(c4ncccc4F)CCC3)nn2)c1 | B (B=1-10 uM)
67 | CS(=O)(=O)Nc1cccc(-c2ccc(NC3(c4cccc(OC(F)F)n4)CCC3)nn2)c1 | A (A=<1 uM)
68 | COc1cccc(C2(Nc3ccc(-c4cccc(NS(C)(=O)=O)c4)nn3)CCC2)n1 | B (B=1-10 uM)
69 | CNC(=O)c1cc(-c2ccc(NC3(c4ccc(F)cc4)CCC3)nn2)ccn1 | B (B=1-10 uM)
70 | CC(C)(O)CNC(=O)c1ccc(F)c(-c2ccc(NC3(c4ccc(F)cc4)CCC3)nn2)c1 | B (B=1-10 uM)
71 | NC(=O)Nc1ccc(-c2ccc(NC3(c4ncccc4F)CCC3)nn2)c(F)c1 | B (B=1-10 uM)
72 | NC(=O)Nc1ccc(-c2ccc(NC3(c4ncccc4F)CCC3)nn2)cc1 | B (B=1-10 uM)
73 | NS(=O)(=O)Nc1ccc(-c2ccc(NC3(c4ncccc4F)CCC3)nn2)c(F)c1 | B (B=1-10 uM)
74 | NS(=O)(=O)Nc1ccc(F)c(-c2ccc(NC3(c4ncccc4F)CCC3)nn2)c1 | B (B=1-10 uM)
75 | CCOC(=O)/C=C/c1ccc(NC2(c3ncccc3F)CCC2)nn1 | D (D=>20 uM)
76 | CCOC(=O)/C=C/c1ccc(NCC2(c3ncccc3F)CCC2)nn1 | D (D=>20 uM)
